Counter-ions that a name gives are not always drawn. Like-named read-outs stand apart in the source and are kept apart here.
Assays:
[1] = test system: A/Puerto Rico/8/34 (H1N1; PR8); assay: organism not typed; type: cell-based, influenza A virus; settings: for EC50: read-out: EC50 for influenza virus A/Puerto Rico/8/34
[2] = test system: A/Hong Kong/8/68 (H3N2); assay: organism not typed; type: cell-based, influenza A virus; settings: for EC50: read-out: EC50 for influenza virus A/Hong Kong/8/68
[3] = in vitro; settings: dog
[4] = test system: pore-forming glycoprotein perforin; settings: previous study, ref Lena et al., 2008; cited from earlier work
[5] = test system: B/Lee/40; type: cell-based, influenza B virus; settings: for EC50: read-out: EC50 for influenza virus B/Lee/40
[6] = test system: PR8 virus; type: cell-based, influenza A virus
[7] = test system: PR8 virus; type: cell-based, influenza A virus; remark: listed apart in the source
[8] = test system: PR8 virus NP and HA protein; type: cell-based, influenza A virus; settings: 11, 33 and 100 μM, 24 h at 35 °C
[9] = test system: HSV; assay: MTT-based antiviral assay, HSV in Vero cells; type: cell-based, herpes simplex virus; settings: maximum concentration of 100 μM, data not shown
[10] = test system: FECV; assay: MTT-based antiviral assay, FECV in CrFK cells; type: cell-based, feline coronavirus; settings: maximum concentration of 100 μM, data not shown
[11] = test system: CoxB; assay: MTT-based antiviral assay, CoxB in HeLa cells; type: cell-based, Coxsackie B virus; settings: maximum concentration of 100 μM, data not shown
[12] = test system: HIV; assay: MTT-based antiviral assay, HIV in MT-4 cells; type: cell-based, human immunodeficiency virus; settings: maximum concentration of 100 μM, data not shown
[13] = test system: MDCK cells; settings: for CC50: read-out: CC50 for MDCK cells, mock-infected MDCK cells, day 3, MTT
[14] = test system: influenza A/H1N1, A/H3N2 and B viruses; assay: CPE reduction assay / screen, stated for the three influenza viruses together; type: cell-based; settings: even at 100 μM

NC12CC3CC(CC(C3)C1)C2 [Amantadine hydrochloride, reference compound]
EC50 ([1]; MDCK, 72 h): > 100 µM | EC50 ([2]; MDCK, 72 h): 2.8 ± 1.7 µM | CC50 [3]: > 100 µM

Cc1cc2c(c(=O)[nH]1)C(=O)O/C2=C\c1c[nH]c2ccc(F)cc12 [Compound 15b, (Z)-1-((5-Fluoro-1H-indol-3-yl)methylene)-6-methylfuro[3,4-c]pyridine-3,4(1H,5 H)-dione]
EC50 ([1]; MDCK, 72 h): 22.5 ± 10.8 µM | EC50 ([2]; MDCK, 72 h): 26.8 ± 16.2 µM | CC50 [3]: > 900 µM

Cc1cc2c(c(=S)n1C)C(=O)O/C2=C\c1cc2cc(F)ccc2[nH]1 [Compound 15c, (Z)-1-((5-Fluoro-1H-indol-2-yl)methylene)-5,6-dimethyl-4-thioxo-4,5-dihydrofuro[3,4-c]pyridin-3(1H)-one]
EC50 ([1]; MDCK, 72 h): > 100 µM | EC50 ([2]; MDCK, 72 h): > 100 µM | CC50 [3]: > 900 µM

O=C1O/C(=C\c2c[nH]c3ccc(F)cc23)c2cc(-c3ccccc3)[nH]c(=S)c21 [Compound 15d, (Z)-1-((5-Fluoro-1H-indol-3-yl)methylene)-6-phenyl-4-thioxo-4,5-dihydrofuro[3,4-c]pyridin-3(1H)-one]
EC50 ([1]; MDCK, 72 h): 63.8 ± 25.2 µM | EC50 ([2]; MDCK, 72 h): 32.5 ± 13.3 µM | CC50 [3]: > 900 µM

Cc1cc2c(c(=S)[nH]1)C(=O)O/C2=C\c1c[nH]c2ccccc12 [Compound 15e, (Z)-1-((1H-Indol-3-yl)methylene)-6-methyl-4-thioxo-4,5-dihydrofuro[3,4-c]pyridi n-3(1H)-one]
EC50 ([1]; MDCK, 72 h): > 100 µM | EC50 ([2]; MDCK, 72 h): > 100 µM | inhibitory effect on cell lysis induced by perforin [4]: inactive | CC50 [3]: > 900 µM

Cc1cc2c(c(=S)[nH]1)C(=O)O/C2=C\c1csc2ccccc12 [Compound 15f, (Z)-1-(Benzo[b]thiophen-3-ylmethylene)-6-methyl-4-thioxo-4,5-dihydrofuro[3,4-c]pyridin-3(1H)-one]
EC50 ([1]; MDCK, 72 h): 26.1 ± 6 µM | EC50 ([2]; MDCK, 72 h): 28.8 ± 6.2 µM | inhibitory effect on cell lysis induced by perforin [4]: active | CC50 [3]: > 900 µM

Cc1cc2c(c(=S)[nH]1)C(=O)O/C2=C\c1cc2ccccc2s1 [Compound 15g, (Z)-1-(Benzo[b]thiophen-2-ylmethylene)-6-methyl-4-thioxo-4,5-dihydrofuro[3,4-c]pyridin-3(1H)-one]
S.I. (selectivity index, CC50/EC50), A/Puerto Rico/8/34 [1]: 16.1 ± 6.0 (>55.9) | EC50 ([1]; MDCK, 72 h): 16.1 µM | S.I. (selectivity index, CC50/EC50), A/Hong Kong/8/68 [2]: 10.5 ± 5.0 (>85.7) | EC50 ([2]; MDCK, 72 h): 10.5 µM | S.I. (selectivity index, CC50/EC50), B/Lee/40 [5]: 18.4 ± 12.8 (>48.9) | plaque titer (infectious viral titers) [6]: significantly inhibited | vRNA levels in culture supernatants [7]: significantly inhibited | viral protein level (NP, HA) in cells [8]: Reduction of the influenza viral protein level | antiviral activity against HSV [9]: no antiviral activity was detected | antiviral activity against FECV [10]: no antiviral activity was detected | antiviral activity against CoxB [11]: no antiviral activity was detected | antiviral activity against HIV [12]: no antiviral activity was detected | inhibitory effect on cell lysis induced by perforin [4]: active | CC50 [3]: > 900 µM

Cc1cc2c(c(=S)[nH]1)C(=O)O/C2=C\c1sc2ccccc2c1C [Compound 15h, (Z)-6-Methyl-1-((3-methylbenzo[b]thiophen-2-yl)methylene)-4-thioxo-4,5-dihydrofuro[3,4-c]pyridin-3(1H)-one]
EC50 ([1]; MDCK, 72 h): > 100 µM | EC50 ([2]; MDCK, 72 h): > 100 µM | CC50 [3]: > 900 µM

Cc1c(/C=C2\OC(=O)c3c2cc(C)n(C)c3=S)sc2ccccc12 [Compound 15i, (Z)-5,6-Dimethyl-1-((3-methylbenzo[b]thiophen-2-yl)methylene)-4-thioxo-4,5-dihydrofuro[3,4-c]pyridin-3(1H)-one]
EC50 ([1]; MDCK, 72 h): > 100 µM | EC50 ([2]; MDCK, 72 h): > 100 µM | CC50 [3]: > 900 µM

Cc1cc2c(c(=S)[nH]1)C(=O)O/C2=C\c1ccsc1 [Compound 15j, (Z)-6-Methyl-1-(thiophen-3-ylmethylene)-4-thioxo-4,5-dihydrofuro[3,4-c]pyridi n-3(1H)-one]
S.I. (selectivity index, CC50/EC50), A/Puerto Rico/8/34 [1]: 5.0 ± 1.0 (>180.0) | EC50 ([1]; MDCK, 72 h): 5 µM | S.I. (selectivity index, CC50/EC50), A/Hong Kong/8/68 [2]: 6.2 ± 3.1 (>145.2) | EC50 ([2]; MDCK, 72 h): 6.2 µM | S.I. (selectivity index, CC50/EC50), B/Lee/40 [5]: 5.9 ± 2.0 (>152.5) | viral protein level (NP, HA) in cells [8]: Reduction of the influenza viral protein level | toxicity to MDCK cells ([13]; at 900 μM, uninfected MDCK cells): no toxicity | inhibitory effect on cell lysis induced by perforin [4]: none | CC50 [3]: > 900 µM

Cc1cc2c(c(=O)[nH]1)C(=O)O/C2=C\c1ccsc1 [Compound 15k, (Z)-6-Methyl-1-(thiophen-3-ylmethylene)furo[3,4-c]pyridine-3,4(1H,5H)-dione]
EC50 ([1]; MDCK, 72 h): > 19.8 µM | EC50 ([2]; MDCK, 72 h): > 19.8 µM | CC50 [3]: 19.8 ± 8.2 µM

O=C1O/C(=C\c2ccsc2)c2cc(-c3ccccc3)[nH]c(=S)c21 [Compound 15l, (Z)-6-Penyl-1-(thiophen-3-ylmethylene)-4-thioxo-4,5-dihydrofuro[3,4-c]pyridin-3(1H)-one]
EC50 [1]: > 100 µM | EC50 [2]: 27.1 ± 5.8 µM | EC50 [5]: > 100 µM | CC50 [13]: > 900 µM

Cc1cc2c(c(=S)[nH]1)C(=O)O/C2=C\c1ccoc1 [Compound 15m, (Z)-1-(Fran-3-ylmethylene)-6-methyl-4-thioxo-4,5-dihydrofuro[3,4-c]pyridin-3(1H)-one]
EC50 [1]: 21.4 ± 12.6 µM | EC50 [2]: 34.1 ± 10 µM | EC50 [5]: 16.3 ± 8.5 µM | CC50 [13]: > 900 µM | inhibitory effect on cell lysis induced by perforin [4]: none

Cc1cc2c(c(=O)[nH]1)C(=O)O/C2=C\c1ccoc1 [Compound 15n, (Z)-1-(Furan-3-ylmethylene)-6-methylfuro[3,4-c]pyridine-3,4(1H,5H)-dione]
EC50 ([1]; MDCK, 72 h): > 61.9 µM | EC50 ([2]; MDCK, 72 h): > 61.9 µM | CC50 [3]: 61.9 ± 10.7 µM

Cc1cc2c(c(=S)[nH]1)C(=O)O/C2=C\c1c[nH]cn1 [Compound 15o, (Z)-1-((1H-imidazol-4-yl)methylene)-6-methyl-4-thioxo-4,5-dihydrofuro[3,4-c]pyridin-3(1H)-one]
EC50 ([1]; MDCK, 72 h): > 100 µM | EC50 ([2]; MDCK, 72 h): > 100 µM | anti-influenza activity [14]: no anti-influenza activity | CC50 [3]: > 900 µM

Cc1cc2c(c(=S)[nH]1)C(=O)O/C2=C\c1ncc[nH]1 [Compound 15p, (Z)-1-((1H-Imidazol-2-yl)methylene)-6-methyl-4-thioxo-4,5-dihydrofuro[3,4-c]pyridin-3(1H)-one]
EC50 ([1]; MDCK, 72 h): > 100 µM | EC50 ([2]; MDCK, 72 h): > 100 µM | anti-influenza activity [14]: no anti-influenza activity | CC50 [3]: > 900 µM

O=C1O/C(=C\c2cccs2)c2cc(-c3ccccc3)[nH]c(=S)c21 [Compound 15r, (Z)-6-Phenyl-1-(thiophen-2-ylmethylene)-4-thioxo-4,5-dihydrofuro[3,4-c]pyridin-3(1H)-one]
EC50 ([1]; MDCK, 72 h): 28.9 ± 12.6 µM | EC50 ([2]; MDCK, 72 h): 15.1 ± 3.8 µM | CC50 [3]: > 900 µM

Cc1cc2c(c(=S)[nH]1)C(=O)O/C2=C\c1sccc1C [Compound 15s, (Z)-6-Methyl-1-((3-methylthiophen-2-yl)methylene)-4-thioxo-4,5-dihydrofuro[3,4-c]pyridin-3(1H)-one]
S.I. (selectivity index, CC50/EC50), A/Puerto Rico/8/34 [1]: 17.6 ± 11.0 (>51.1) | EC50 ([1]; MDCK, 72 h): 17.6 µM | S.I. (selectivity index, CC50/EC50), A/Hong Kong/8/68 [2]: 12.7 ± 8.2 (>70.9) | EC50 ([2]; MDCK, 72 h): 12.7 µM | S.I. (selectivity index, CC50/EC50), B/Lee/40 [5]: 14.0 ± 7.4 (>64.3) | CC50 [3]: > 900 µM

Cc1cc2c(c(=S)[nH]1)C(=O)O/C2=C\c1ccc(C)s1 [Compound 15t, (Z)-6-Methyl-1-((5-methylthiophen-2-yl)methylene)-4-thioxo-4,5-dihydrofuro[3,4-c]pyridin-3(1H)-one]
S.I. (selectivity index, CC50/EC50), A/Puerto Rico/8/34 [1]: 8.0 ± 3.6 (>112.5) | EC50 ([1]; MDCK, 72 h): 8 µM | S.I. (selectivity index, CC50/EC50), A/Hong Kong/8/68 [2]: 12.2 ± 2.9 (>73.8) | EC50 ([2]; MDCK, 72 h): 12.2 µM | S.I. (selectivity index, CC50/EC50), B/Lee/40 [5]: 9.6 ± 3.5 (>93.8) | inhibitory effect on cell lysis induced by perforin [4]: active | CC50 [3]: > 900 µM

CCc1ccc(/C=C2\OC(=O)c3c2cc(C)[nH]c3=S)s1 [Compound 15u, (Z)-1-((5-Ethylthiophen-2-yl)methylene)-6-methyl-4-thioxo-4,5-dihydrofuro[3,4-c]pyridin-3(1H)-one]
EC50 ([1]; MDCK, 72 h): 31.7 ± 21.7 µM | EC50 ([2]; MDCK, 72 h): 32.6 ± 10.2 µM | CC50 [3]: > 900 µM

Cc1cc2c(c(=S)[nH]1)C(=O)O/C2=C\c1cc(Br)cs1 [Compound 15v, (Z)-1-((4-Bromothiophen-2-yl)methylene)-6-methyl-4-thioxo-4,5-dihydrofuro[3,4-c]pyridin-3(1H)-one]
EC50 ([1]; MDCK, 72 h): 63.7 ± 36 µM | EC50 ([2]; MDCK, 72 h): 47.1 ± 18.7 µM | CC50 [3]: > 900 µM

Cc1cc2c(c(=S)[nH]1)C(=O)O/C2=C\c1ccc(Br)s1 [Compound 15w, (Z)-1-((5-Bromothiophen-2-yl)methylene)-6-methyl-4-thioxo-4,5-dihydrofuro[3,4-c]pyridin-3(1H)-one]
EC50 ([1]; MDCK, 72 h): > 100 µM | EC50 ([2]; MDCK, 72 h): > 100 µM | CC50 [3]: > 900 µM

Cc1ccsc1/C=C1\OC(=O)c2c1cc(C)n(C)c2=S [Compound 15x, (Z)-5,6-Dimethyl-1-((3-methylthiophen-2-yl)methylene)-4-thioxo-4,5-dihydrofuro[3,4-c]pyridin-3(1H)-one]
S.I. (selectivity index, CC50/EC50), A/Puerto Rico/8/34 [1]: 12.1 ± 9.5 (>74.4) | EC50 ([1]; MDCK, 72 h): 12.1 µM | S.I. (selectivity index, CC50/EC50), A/Hong Kong/8/68 [2]: 11.7 ± 2.7 (>76.9) | EC50 ([2]; MDCK, 72 h): 11.7 µM | S.I. (selectivity index, CC50/EC50), B/Lee/40 [5]: 8.0 ± 3.6 (>112.5) | CC50 [3]: > 900 µM

NC(=O)c1ncn([C@@H]2O[C@H](CO)[C@@H](O)[C@H]2O)n1 [Ribavirin, ribavirin, reference compound]
EC50 ([1]; MDCK, 72 h): 18.8 ± 4.3 µM | EC50 ([2]; MDCK, 72 h): 20.2 ± 2.4 µM

Source: PMC7113773 (Antiviral Research, 2014)
